{"source": "PubChem BioAssay (NCI)", "assay_in_all_cases": "DTP human tumour cell line panel, 48 h", "key": {"EKVX NSCLC": {"system": "EKVX NSCLC"}, "SF-539 CNS": {"system": "SF-539 CNS"}, "NCI-H226 lung": {"system": "NCI-H226 lung"}, "T-47D breast": {"system": "T-47D breast"}, "ACHN renal": {"system": "ACHN renal"}, "HOP-92 NSCLC": {"system": "HOP-92 NSCLC"}, "SK-MEL-2 melanoma": {"system": "SK-MEL-2 melanoma"}, "BT-549 breast": {"system": "BT-549 breast"}, "M14 melanoma": {"system": "M14 melanoma"}, "SK-MEL-28 melanoma": {"system": "SK-MEL-28 melanoma"}, "SK-OV-3 ovarian": {"system": "SK-OV-3 ovarian"}, "DU-145 prostate": {"system": "DU-145 prostate"}, "MDA-MB-468 breast": {"system": "MDA-MB-468 breast"}, "HL-60(TB) leukemia": {"system": "HL-60(TB) leukemia"}, "SF-268 CNS": {"system": "SF-268 CNS"}, "A549 NSCLC": {"system": "A549 NSCLC"}, "COLO 205 colon": {"system": "COLO 205 colon"}, "TK-10 renal": {"system": "TK-10 renal"}, "MOLT-4 leukemia": {"system": "MOLT-4 leukemia"}, "MDA-MB-231 breast": {"system": "MDA-MB-231 breast"}, "PC-3 prostate": {"system": "PC-3 prostate"}, "SNB-75 CNS": {"system": "SNB-75 CNS"}, "NCI/ADR-RES ovarian": {"system": "NCI/ADR-RES ovarian"}, "SR leukemia": {"system": "SR leukemia"}, "OVCAR-3 ovarian": {"system": "OVCAR-3 ovarian"}, "RXF 393 renal": {"system": "RXF 393 renal"}, "NCI-H23 lung": {"system": "NCI-H23 lung"}, "KM12 colon": {"system": "KM12 colon"}, "OVCAR-4 ovarian": {"system": "OVCAR-4 ovarian"}, "UACC-62 melanoma": {"system": "UACC-62 melanoma"}, "RPMI-8226 leukemia": {"system": "RPMI-8226 leukemia"}, "A498 renal": {"system": "A498 renal"}, "CCRF-CEM leukemia": {"system": "CCRF-CEM leukemia"}, "SN12C renal": {"system": "SN12C renal"}, "HCC-2998 colon": {"system": "HCC-2998 colon"}, "UO-31 renal": {"system": "UO-31 renal"}, "HS 578T breast": {"system": "HS 578T breast"}, "HOP-62 NSCLC": {"system": "HOP-62 NSCLC"}, "OVCAR-5 ovarian": {"system": "OVCAR-5 ovarian"}, "MDA-MB-435": {"system": "MDA-MB-435"}, "NCI-H460 lung": {"system": "NCI-H460 lung"}, "CAKI-1 renal": {"system": "CAKI-1 renal"}, "IGROV1 ovarian": {"system": "IGROV1 ovarian"}, "K-562 leukemia": {"system": "K-562 leukemia"}, "MALME-3M melanoma": {"system": "MALME-3M melanoma"}, "SNB-19 CNS": {"system": "SNB-19 CNS"}}, "note": "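Five compound concentrations were applied to cells in 96-well plates for 48 hours; endpoints were derived by simple linear interpolation of the resulting dose-response curve. GI50 marks 50% less growth. TGI: total growth inhibition.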"}
{"smiles": "CN1CCN(c2ccc(Nc3nc(N4CCN(S(=O)(=O)c5ccc(Cl)cc5)CC4)c4sccc4n3)cc2)CC1", "values": [{"measurement": "GI50", "setting": "EKVX NSCLC", "result": 22, "unit": "µM"}, {"measurement": "TGI", "setting": "EKVX NSCLC", "result": 59.8, "unit": "µM"}, {"measurement": "GI50", "setting": "SF-539 CNS", "result": 1690, "unit": "nM"}, {"measurement": "TGI", "setting": "SF-539 CNS", "result": 3.16, "unit": "µM"}, {"measurement": "GI50", "setting": "NCI-H226 lung", "result": 18.7, "unit": "µM"}, {"measurement": "TGI", "setting": "NCI-H226 lung", "result": 55.5, "unit": "µM"}, {"measurement": "GI50", "setting": "T-47D breast", "result": 7.17, "unit": "µM"}, {"measurement": "TGI", "setting": "T-47D breast", "result": 35.9, "unit": "µM"}, {"measurement": "GI50", "setting": "ACHN renal", "result": 3.03, "unit": "µM"}, {"measurement": "TGI", "setting": "ACHN renal", "result": 11.4, "unit": "µM"}, {"measurement": "GI50", "setting": "HOP-92 NSCLC", "result": 10.7, "unit": "µM"}, {"measurement": "TGI", "setting": "HOP-92 NSCLC", "result": 28.7, "unit": "µM"}, {"measurement": "GI50", "setting": "SK-MEL-2 melanoma", "result": 19.4, "unit": "µM"}, {"measurement": "TGI", "setting": "SK-MEL-2 melanoma", "result": 40.1, "unit": "µM"}, {"measurement": "GI50", "setting": "BT-549 breast", "result": 20.8, "unit": "µM"}, {"measurement": "TGI", "setting": "BT-549 breast", "result": 58.7, "unit": "µM"}, {"measurement": "GI50", "setting": "M14 melanoma", "result": 1850, "unit": "nM"}, {"measurement": "TGI", "setting": "M14 melanoma", "result": 3.62, "unit": "µM"}, {"measurement": "GI50", "setting": "SK-MEL-28 melanoma", "result": 1730, "unit": "nM"}, {"measurement": "TGI", "setting": "SK-MEL-28 melanoma", "result": 3.36, "unit": "µM"}, {"measurement": "GI50", "setting": "SK-OV-3 ovarian", "result": 26.8, "unit": "µM"}, {"measurement": "TGI", "setting": "SK-OV-3 ovarian", "result": 69.2, "unit": "µM"}, {"measurement": "GI50", "setting": "DU-145 prostate", "result": 3.36, "unit": "µM"}, {"measurement": "TGI", "setting": "DU-145 prostate", "result": 10.8, "unit": "µM"}, {"measurement": "GI50", "setting": "MDA-MB-468 breast", "result": 1640, "unit": "nM"}, {"measurement": "TGI", "setting": "MDA-MB-468 breast", "result": 3.14, "unit": "µM"}, {"measurement": "GI50", "setting": "HL-60(TB) leukemia", "result": 2100, "unit": "nM"}, {"measurement": "TGI", "setting": "HL-60(TB) leukemia", "result": 4.47, "unit": "µM"}, {"measurement": "GI50", "setting": "SF-268 CNS", "result": 13.5, "unit": "µM"}, {"measurement": "TGI", "setting": "SF-268 CNS", "result": 39, "unit": "µM"}, {"measurement": "GI50", "setting": "A549 NSCLC", "result": 4.35, "unit": "µM"}, {"measurement": "TGI", "setting": "A549 NSCLC", "result": 24.9, "unit": "µM"}, {"measurement": "GI50", "setting": "COLO 205 colon", "result": 2670, "unit": "nM"}, {"measurement": "TGI", "setting": "COLO 205 colon", "result": 7.54, "unit": "µM"}, {"measurement": "GI50", "setting": "TK-10 renal", "result": 6.47, "unit": "µM"}, {"measurement": "TGI", "setting": "TK-10 renal", "result": 21.6, "unit": "µM"}, {"measurement": "GI50", "setting": "MOLT-4 leukemia", "result": 2210, "unit": "nM"}, {"measurement": "TGI", "setting": "MOLT-4 leukemia", "result": 5.78, "unit": "µM"}, {"measurement": "GI50", "setting": "MDA-MB-231 breast", "result": 1710, "unit": "nM"}, {"measurement": "TGI", "setting": "MDA-MB-231 breast", "result": 3.27, "unit": "µM"}, {"measurement": "GI50", "setting": "PC-3 prostate", "result": 4.01, "unit": "µM"}, {"measurement": "TGI", "setting": "PC-3 prostate", "result": "> 100", "unit": "µM"}, {"measurement": "GI50", "setting": "SNB-75 CNS", "result": 9.97, "unit": "µM"}, {"measurement": "TGI", "setting": "SNB-75 CNS", "result": 24.3, "unit": "µM"}, {"measurement": "GI50", "setting": "NCI/ADR-RES ovarian", "result": 10.9, "unit": "µM"}, {"measurement": "TGI", "setting": "NCI/ADR-RES ovarian", "result": 39.7, "unit": "µM"}, {"measurement": "GI50", "setting": "SR leukemia", "result": 1920, "unit": "nM"}, {"measurement": "TGI", "setting": "SR leukemia", "result": 4.82, "unit": "µM"}, {"measurement": "GI50", "setting": "OVCAR-3 ovarian", "result": 2850, "unit": "nM"}, {"measurement": "TGI", "setting": "OVCAR-3 ovarian", "result": 7.42, "unit": "µM"}, {"measurement": "GI50", "setting": "RXF 393 renal", "result": 1910, "unit": "nM"}, {"measurement": "TGI", "setting": "RXF 393 renal", "result": 3.68, "unit": "µM"}, {"measurement": "GI50", "setting": "NCI-H23 lung", "result": 19.1, "unit": "µM"}, {"measurement": "TGI", "setting": "NCI-H23 lung", "result": 66.3, "unit": "µM"}, {"measurement": "GI50", "setting": "KM12 colon", "result": 4.85, "unit": "µM"}, {"measurement": "TGI", "setting": "KM12 colon", "result": 20, "unit": "µM"}, {"measurement": "GI50", "setting": "OVCAR-4 ovarian", "result": 14.9, "unit": "µM"}, {"measurement": "TGI", "setting": "OVCAR-4 ovarian", "result": 38.7, "unit": "µM"}, {"measurement": "GI50", "setting": "UACC-62 melanoma", "result": 1710, "unit": "nM"}, {"measurement": "TGI", "setting": "UACC-62 melanoma", "result": 3.25, "unit": "µM"}, {"measurement": "GI50", "setting": "RPMI-8226 leukemia", "result": 2890, "unit": "nM"}, {"measurement": "TGI", "setting": "RPMI-8226 leukemia", "result": 6.13, "unit": "µM"}, {"measurement": "GI50", "setting": "A498 renal", "result": 17.5, "unit": "µM"}, {"measurement": "TGI", "setting": "A498 renal", "result": 31.6, "unit": "µM"}, {"measurement": "GI50", "setting": "CCRF-CEM leukemia", "result": 4.47, "unit": "µM"}, {"measurement": "TGI", "setting": "CCRF-CEM leukemia", "result": 32.6, "unit": "µM"}, {"measurement": "GI50", "setting": "SN12C renal", "result": 13.7, "unit": "µM"}, {"measurement": "TGI", "setting": "SN12C renal", "result": 34.7, "unit": "µM"}, {"measurement": "GI50", "setting": "HCC-2998 colon", "result": 2640, "unit": "nM"}, {"measurement": "TGI", "setting": "HCC-2998 colon", "result": 6.18, "unit": "µM"}, {"measurement": "GI50", "setting": "UO-31 renal", "result": 13.7, "unit": "µM"}, {"measurement": "TGI", "setting": "UO-31 renal", "result": 29.6, "unit": "µM"}, {"measurement": "GI50", "setting": "HS 578T breast", "result": 13.1, "unit": "µM"}, {"measurement": "TGI", "setting": "HS 578T breast", "result": 46.7, "unit": "µM"}, {"measurement": "GI50", "setting": "HOP-62 NSCLC", "result": 28.9, "unit": "µM"}, {"measurement": "TGI", "setting": "HOP-62 NSCLC", "result": 88.8, "unit": "µM"}, {"measurement": "GI50", "setting": "OVCAR-5 ovarian", "result": 15.6, "unit": "µM"}, {"measurement": "TGI", "setting": "OVCAR-5 ovarian", "result": 39.5, "unit": "µM"}, {"measurement": "GI50", "setting": "MDA-MB-435", "result": 1760, "unit": "nM"}, {"measurement": "TGI", "setting": "MDA-MB-435", "result": 3.31, "unit": "µM"}, {"measurement": "GI50", "setting": "NCI-H460 lung", "result": 1930, "unit": "nM"}, {"measurement": "TGI", "setting": "NCI-H460 lung", "result": 3.69, "unit": "µM"}, {"measurement": "GI50", "setting": "CAKI-1 renal", "result": 11.6, "unit": "µM"}, {"measurement": "TGI", "setting": "CAKI-1 renal", "result": 27.8, "unit": "µM"}, {"measurement": "GI50", "setting": "IGROV1 ovarian", "result": 14.5, "unit": "µM"}, {"measurement": "TGI", "setting": "IGROV1 ovarian", "result": 44.8, "unit": "µM"}, {"measurement": "GI50", "setting": "K-562 leukemia", "result": 2160, "unit": "nM"}, {"measurement": "TGI", "setting": "K-562 leukemia", "result": 6.04, "unit": "µM"}, {"measurement": "GI50", "setting": "MALME-3M melanoma", "result": 1640, "unit": "nM"}, {"measurement": "TGI", "setting": "MALME-3M melanoma", "result": 3.03, "unit": "µM"}, {"measurement": "GI50", "setting": "SNB-19 CNS", "result": 3.69, "unit": "µM"}, {"measurement": "TGI", "setting": "SNB-19 CNS", "result": 17.1, "unit": "µM"}]}
